The results in this text go back to patent US9023789B2, “Amylin analogs and pharmaceutical compositions thereof” (Novo Nordisk A/S, priority 2012, dated 2015).

Where two headings read alike, the source gives them in different places. Numbered stars: 1 amine (or outer) side, 2 acyl side, 3 side chain; on linkers, the order of the positions; unused ones are H or OH. Bridge positions count the residues as written; N and C are the ends. Side chains are listed from the residue outwards. Peptide text beside a SMILES is read from it. * marks the point of attachment. C20 diacid = O=C(O)CCCCCCCCCCCCCCCCCCC(=O)*; γGlu = O=C(O)[C@H](CCC(=O)[*:2])N[*:1]

Data set [1] addresses T1, human amylin 3(a) receptor (human calcitonin receptor + RAMP-3) in BHK570 cells (Homo sapiens, UniProt O60896+P30988).
T1 construct: expressed in transfected cells
Nature of the data set: ASSAY (II)a functional assay, human amylin receptor (CRE luciferase). The data set is classed as cell-based. Summed up: (§1)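 Ligand exposure 3 h at 37 °C, 5% CO2 in DMEM with 10% FBS, 10 mM Hepes pH 7.4. cAMP-driven luciferase read by luminescence after 30 min LucLite at room temperature.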

For data set [2], the target named is T2, human calcitonin (a) receptor in BHK570 cells (Homo sapiens, UniProt P30988).
T2 construct: expressed in transfected cells
T2 sequence (P30988 25-474): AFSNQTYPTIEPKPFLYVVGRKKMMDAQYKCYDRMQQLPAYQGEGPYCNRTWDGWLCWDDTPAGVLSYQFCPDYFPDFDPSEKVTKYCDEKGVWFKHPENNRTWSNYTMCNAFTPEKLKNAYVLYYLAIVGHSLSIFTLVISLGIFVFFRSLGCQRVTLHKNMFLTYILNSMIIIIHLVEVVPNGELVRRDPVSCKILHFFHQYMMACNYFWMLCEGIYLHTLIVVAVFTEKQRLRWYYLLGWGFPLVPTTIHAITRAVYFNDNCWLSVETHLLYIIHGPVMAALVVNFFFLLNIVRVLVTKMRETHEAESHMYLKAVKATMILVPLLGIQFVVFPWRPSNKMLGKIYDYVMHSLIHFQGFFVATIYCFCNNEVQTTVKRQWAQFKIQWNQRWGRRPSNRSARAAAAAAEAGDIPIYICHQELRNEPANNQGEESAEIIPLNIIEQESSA
Nature of the data set: ASSAY (II)a functional assay, human calcitonin receptor (CRE luciferase). The data set is classed as cell-based. The conditions noted are these: read-out: hCTR funct. EC50. An outline of the steps:
as §1

Data set [3] is described as follows: ASSAY (IV) determination of solubility. It is filed as physicochemical. An outline of the steps:
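Dissolve polypeptide in water ([…] stock); combine 1:1 with each 100 mM buffer (glycylglycine pH 3.0/4.0/5.0; bistrispropane pH 6.0/6.5/7.0/7.5/8.0); hold 18 hours at room temperature; centrifuge; quantify polypeptide by UPLC.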

Data set [4] deals with T3, human amylin receptor (membranes from Amylin 3(a)/CRE-luc cells) (Homo sapiens, UniProt O60896+P30988).
T3 construct: expressed in transfected cells
T3 sequence (P30988 25-474): T2 sequence (P30988 25-474)
T3 sequence (O60896 24-148 partner): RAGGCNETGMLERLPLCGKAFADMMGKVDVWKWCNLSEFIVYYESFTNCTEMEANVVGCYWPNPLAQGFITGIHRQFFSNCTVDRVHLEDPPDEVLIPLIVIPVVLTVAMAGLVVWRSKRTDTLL
Nature of the data set: ASSAY (V) binding to the human amylin receptor (SPA, 125I-rat amylin).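 Note: competition binding of cell membranes (35 ng/µL) mixed with SPA beads in 384-well plates at 40 µL total volume, read by scintillation counting.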

Data set [5] addresses T4, human calcitonin receptor (Homo sapiens, UniProt P30988).
T4 construct: expressed in transfected cells
T4 sequence (P30988 25-474): T2 sequence (P30988 25-474)
Nature of the data set: ASSAY (VII) binding to the human calcitonin receptor (SPA, 125I-Calcitonin).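 Note: cell membranes (35 ng/µL) combined with SPA beads in 40 µL of pH 7.4 Hepes buffer, 384-well format, signal counted on a TopCounter instrument.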 Particulars: read-out: hCTR bind IC50.

In another data set the target is T5, rat calcitonin receptor (Rattus norvegicus, UniProt P32214).
T5 construct: expressed in transfected cells; host or cells: BHK tk'ts 13 (transient, FuGENE 6), membranes
T5 sequence (P32214 25-479 isoform P32214-2 limits assumed): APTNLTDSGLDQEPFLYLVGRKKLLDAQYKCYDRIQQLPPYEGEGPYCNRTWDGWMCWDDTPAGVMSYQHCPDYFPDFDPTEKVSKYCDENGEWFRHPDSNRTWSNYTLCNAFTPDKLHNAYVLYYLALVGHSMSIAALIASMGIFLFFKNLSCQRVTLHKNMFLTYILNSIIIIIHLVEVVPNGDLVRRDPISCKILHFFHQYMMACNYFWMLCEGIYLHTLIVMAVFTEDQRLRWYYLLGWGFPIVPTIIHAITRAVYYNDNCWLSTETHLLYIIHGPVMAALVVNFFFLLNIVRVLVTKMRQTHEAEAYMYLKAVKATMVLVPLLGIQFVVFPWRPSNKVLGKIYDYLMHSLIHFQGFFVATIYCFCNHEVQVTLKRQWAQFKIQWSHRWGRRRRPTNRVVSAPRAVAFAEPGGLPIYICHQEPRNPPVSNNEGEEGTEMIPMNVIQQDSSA
Nature of the data set: ASSAY (VIII) binding to the rat calcitonin receptor. Particulars: Table 7, read-out: rCTR bind IC50. Summed up:
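Rat calcitonin receptor is expressed transiently in BHK tk′ts 13 cells cultured in DMEM with 10% FBS. Roughly two days (approximately 48 hours) post-transfection, cells are harvested for membrane preparation.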

For the molecule `CC[C@H](C)[C@H](NC(=O)[C@H](C)NC(=O)CNC(=O)[C@H](Cc1ccccc1)NC(=O)[C@H](CC(N)=O)NC(=O)[C@H](CCCCNC(=O)CC[C@H](NC(=O)CC[C@H](NC(=O)CCCCCCCCCCCCCCCCCCC(=O)O)C(=O)O)C(=O)O)NC(=O)[C@H](CO)NC(=O)[C@H](CO)NC(=O)[C@H](Cc1c[nH]cn1)NC(=O)[C@H](CCCNC(=N)N)NC(=O)[C@H](CC(C)C)NC(=O)[C@H](Cc1ccccc1)NC(=O)[C@H](CC(=O)O)NC(=O)[C@H](C)NC(=O)[C@H](CC(C)C)NC(=O)[C@H](CCCNC(=N)N)NC(=O)[C@H](CCC(N)=O)NC(=O)[C@@H](NC(=O)[C@H](C)NC(=O)[C@@H]1CSSC[C@H](NC(=O)[C@@H](N)CCCCN)C(=O)N[C@@H](CC(N)=O)C(=O)N[C@@H]([C@@H](C)O)C(=O)N[C@@H](C)C(=O)N[C@@H]([C@@H](C)O)C(=O)N1)[C@@H](C)O)C(=O)N1CCC[C@H]1C(=O)N[C@@H](CO)C(=O)N[C@@H](CO)C(=O)N[C@H](C(=O)N[C@@H](CC(N)=O)C(=O)N[C@H](C(=O)NCC(=O)N[C@@H](CO)C(=O)N[C@@H](CC(=O)O)C(=O)N[C@H](C(=O)N[C@@H](Cc1ccc(O)cc1)C(N)=O)[C@@H](C)O)C(C)C)[C@@H](C)O` [Example 59] (H-KCNTATCATQRLADFLRHSSK([γGlu-γGlu-C20 diacid])NFGAIPSSTNVGSDTY-NH2; disulfide 2-7; N-terminus assumed), the EC50 in data set [1] (human amylin receptor functional potency, assay (II), read-out: hAmylin-R funct. EC50) was 0.389 nM; in data set [2], 1.95 nM. In addition, in data set [1] (human functional selectivity: hCTR funct. EC50 / hAmylin-R funct. EC50), the “Ratio hCT/hAmylin funct.” value is 5.0. The solubility at 18 h in data set [3] (bistrispropane buffer, pH 6.5, read-out: Solubility pH 6.5 Concentration) was at least 200 µM; in data set [3] (bistrispropane buffer, pH 7.5, read-out: Solubility pH 7.5 Concentration) it was at least 200 µM; in data set [3] (bistrispropane buffer, pH 6.0, read-out: Solubility pH 6.0 Concentration) it was at least 200 µM; in data set [3] (bistrispropane buffer, pH 7.0, read-out: Solubility pH 7.0 Concentration), at least 200 µM; in data set [3] (bistrispropane buffer, pH 8.0, read-out: Solubility pH 8.0 Concentration), at least 200 µM; in data set [3] (glycylglycine buffer, pH 3.0, read-out: Solubility pH 3.0 Concentration), at least 200 µM. The solubility at 18 h in data set [3] (glycylglycine buffer, pH 4.0, read-out: Solubility pH 4.0 Concentration) is at least 200 µM; in data set [3] (glycylglycine buffer, pH 5.0, read-out: Solubility pH 5.0 Concentration), at least 200 µM. Besides, the IC50 turned out to be 1.19 nM in data set [4] (Table 4, read-out: hAmylin-R bind IC50); 5.14 nM in data set [5]; 18.8 nM at rat calcitonin receptor. Besides, the “Ratio hCT/hAmylin binding” value in data set [4] (Table 5, selectivity, hCTR bind IC50 / hAmylin-R bind IC50) came to 4.3; in data set [4] (Table 7, human binding selectivity, included for comparison) it was 4.3; in data set [4] (Table 7a (preferred compounds), human binding selectivity, included for comparison) it was 4.3.

For orientation: EC50 means the concentration needed to bring the measured effect to its halfway point. As a reminder, the IC50 is the concentration that gives 50% inhibition.
